Publication PMC10726441, “Discovery of Tumor-Targeted 6-Methyl Substituted Pemetrexed and Related Antifolates with Selective Loss of RFC Transport” (ACS Medicinal Chemistry Letters, 2023)

Columns and labels:
Assay type in all cases: cell-based, Chinese hamster
[1] = tested on: MTXRIIOuaR2-4 CHO cells (R2; RFC-, PCFT-, and FR-null); assay: Cell proliferation assay, transporter-null R2 CHO cells; conditions: Cricetulus griseus, 96 h, 0-1000 nM, mean (standard error), 3-5 experiments
Text: (§1) To assess the impact of 6-methyl substitutions on the bicyclic scaffolds of the pyrrolo[2,3-d]pyrimidine antifolates 1–4 on RFC transport vis-à-vis PCFT, FRα, and FRβ, we used a unique biological readout for transport activity. This involved proliferation assays with isogenic Chinese hamster ovary (CHO) sublines derived from RFC-, FR-, and PCFT-null MTXRIIOua^R2–4 CHO cells[39],[40] engineered to express the human FRα (RT16),[25] FRβ (D4),[25] RFC (PC43–10),[41] or PCFT (R2/PCFT4).[26],[42] As these CHO cell lines are genetically identical except for their folate transporters, differences in inhibition of cell proliferation by specific cytotoxic antifolates directly reflect transporter specificities.[19],[23]−[31],[42] […]
(§2) Reagents for biological studies. Leucovorin [(6R,S) 5-formyl tetrahydrofolate] and methotrexate (MTX) was provided by the Drug Development Branch, National Cancer Institute, Bethesda, MD. Other chemicals were obtained from commercial sources in the highest available purities. Pemetrexed (PMX; 1) [N-{4-[2- (2-amino-3,4-dihydro-4-oxo-7H-pyrrolo[2,3-d]pyrimidin-5-yl)ethyl]benzoyl-L-glutamic acid] (Alimta) was purchased from LC Laboratories (Woburn, MA). The syntheses of compounds 2 and 3 were previously described.7, 8 Additional chemicals were purchased from commercial sources in the highest available purities.
(§3) Cell Culture. The reduced folate carrier (RFC), proton-coupled folate transporter (SLC46A1; PCFT) and folate receptor (FR) α- and β-null Chinese hamster ovary (CHO) cell line MTXRIIOuaR2-49 was a gift from Dr. Wayne Flintoff (University of Western Ontario, London, ON). Four sublines were derived from the R2 subline by transfection with either RFC, PCFT, FRα, or FRβ, giving rise to PC43-10 (expresses human RFC), 10 R2/PCFT4 (expresses human PCFT),11 RT16 (expresses human FRα), 12 and D4 (expresses FRβ) cells. 12 Isogenic CHO sublines were routinely cultured in α-minimal essential medium (α-MEM) supplemented with 100 units/mL penicillin/100 μg/mL streptomycin, 2 mM L-glutamine and 10% bovine calf serum (Sigma-Aldrich). Transfected sublines of R2 cells were cultured in the presence of 1.5 mg/ml G418. […]
(§4) mM L-glutamine. Cell lines were tested for Mycoplasma by PCR using a Mycloplasma testing kit (Venor™ GeM Mycoplasma Detection Kit, Sigma). Frozen stocks were generated from authenticated Mycoplasma-free cultures.
(§5) For cell proliferation assays, CHO, KB, NCI-IGROV1 and IOSE 7576 cells were plated in 96-well dishes at densities ranging from 2500-5000 cells/well in 200 μL media and treated with a range of inhibitors spanning 0-1000 nM. Experiments with RT16, D4, IGROV1, IOSE 7576 and KB cells used folate-free RPMI 1640 (FF RPMI) media with 10% dialyzed fetal bovine serum and 100 units/mL penicillin/100 μg/mL streptomycin, supplemented with 2 nM leucovorin and 2 mM L-glutamine. FR-mediated drug uptake was assessed in parallel incubations including 200 nM folic acid. For R2/PCFT4, PC43-10 and R2 CHO cells, the medium was FF-RPMI supplemented with 10% dialyzed fetal bovine serum, 100 units/mL penicillin/100 μg/mL streptomycin, 25 nM leucovorin and 2 mM L-glutamine.
(§6) Cells were treated over a 96 h period at 37° C with 5% CO2 and relative cell numbers quantified using the CellTiter-blue cell viability assay (Promega, Madison, WI) and a fluorescence plate reader. Raw data were exported to Excel for analysis and the results were plotted using Graphpad Prism 6.0. Determinations of IC50s were made […]
(§7) assays have been previously described.7, 8, 11, 12, 15-20
(§8) Using KB cells, additional proliferation assays were performed with metabolite protection in folate- and glycine-free RPMI1640 with 10% dialyzed fetal bovine serum, 2 mM L-glutamine and antibiotics with 2 nM leucovorin to identify the targeted pathway and enzyme(s). 7, 8, 11, 12, 15-20 Inhibitory effects of the novel analogs on de novo thymidylate biosynthesis and de novo purine nucleotide biosynthesis were tested by incubating drugs with thymidine (10 μM) and adenosine (60 μM), respectively. […]

PC43-10 (RFC) CHO cells = assay: Cell proliferation assay, PC43-10 CHO cells expressing human RFC; conditions: Cricetulus griseus, 96 h, 0-1000 nM, mean (standard error), 3-5 experiments
Text: as §1, §2, §3, §4, §5, §6, §7, §8

[2] = tested on: R2/PCFT4 (PCFT) CHO cells; assay: Cell proliferation assay, R2/PCFT4 CHO cells expressing human PCFT; conditions: for IC50: Cricetulus griseus, R2/PCFT4, 96 h, 0-1000 nM, mean (standard error), 3-5 experiments; for RFC/PCFT Selectivity ratios: ratio of IC50 PC43-10 (RFC) to IC50 R2/PCFT4 (PCFT)
Text: as §1, §2, §3, §4, §5, §6, §7, §8

RT16 (FRα) CHO cells = assay: Cell proliferation assay, RT16 CHO cells expressing human FRα; conditions: for IC50: Cricetulus griseus, RT16, 96 h, 0-1000 nM, mean (standard error), 3-5 experiments; for RFC/FRα Selectivity ratios: ratio of IC50 PC43-10 (RFC) to IC50 RT16 (FRα)
Text: as §1, §2, §3, §4, §5, §6, §7, §8

D4 (FRβ) CHO cells = assay: Cell proliferation assay, D4 CHO cells expressing FRβ; conditions: for IC50: Cricetulus griseus, CHO, 96 h, 0-1000 nM, mean (standard error), 3-5 experiments; for RFC/FRβ Selectivity ratios: ratio of IC50 PC43-10 (RFC) to IC50 D4 (FRβ)
Text: as §1, §2, §3, §4, §5, §6, §7, §8

Compound	IC50 [1]	IC50 (PC43-10 (RFC) CHO cells)	IC50 [2]	IC50 (RT16 (FRα) CHO cells)	RFC/FRα Selectivity ratios (RT16 (FRα) CHO cells)	IC50 (D4 (FRβ) CHO cells)	RFC/FRβ Selectivity ratios (D4 (FRβ) CHO cells)	RFC/PCFT Selectivity ratios [2]
Cc1[nH]c2nc(N)[nH]c(=O)c2c1CCc1ccc(C(=O)N[C@@H](CCC(=O)O)C(=O)O)c(F)c1 [Compound 8]	> 1000 nM	> 1000 nM	> 1000 nM	100 nM	>10	49 nM	>20	–
Cc1[nH]c2nc(N)[nH]c(=O)c2c1CCc1ccc(C(=O)N[C@@H](CCC(=O)O)C(=O)O)cc1 [Compound 5]	> 1000 nM	> 1000 nM	7.66 nM	94.8 nM	>10.5	5.7 nM	>175	>130
Nc1nc2[nH]cc(CCCc3ccc(C(=O)N[C@@H](CCC(=O)O)C(=O)O)cc3)c2c(=O)[nH]1 [Compound 2]	> 1000 nM	–	–	47.9 nM	–	3.54 nM	–	–
Nc1nc2[nH]cc(CCc3ccc(C(=O)N[C@@H](CCC(=O)O)C(=O)O)s3)c2c(=O)[nH]1 [Compound 3]	> 1000 nM	59.9 nM	80.2 nM	550 nM	0.11	552 nM	0.11	0.75
Cc1[nH]c2nc(N)[nH]c(=O)c2c1CCc1ccc(C(=O)N[C@@H](CCC(=O)O)C(=O)O)s1 [Compound 7]	> 1000 nM	> 1000 nM	51.5 nM	2.53 nM	>395	2.98 nM	>335	>19.4
Nc1nc2[nH]cc(CCc3ccc(C(=O)N[C@@H](CCC(=O)O)C(=O)O)c(F)c3)c2c(=O)[nH]1 [Compound 4]	> 1000 nM	169 nM	25.9 nM	6.76 nM	25	8.9 nM	19	6.5
Nc1nc2[nH]cc(CCc3ccc(C(=O)N[C@@H](CCC(=O)O)C(=O)O)cc3)c2c(=O)[nH]1 [Compound 1, reference compound]	> 1000 nM	30.6 nM	–	14 nM	–	63.2 nM	–	–
Cc1[nH]c2nc(N)[nH]c(=O)c2c1CCCc1ccc(C(=O)N[C@@H](CCC(=O)O)C(=O)O)cc1 [Compound 6]	> 1000 nM	> 1000 nM	64.7 nM	63.8 nM	>15.7	2.61 nM	>383	>15.5
